Assay [1] relates to P. falciparum 3D7 trophozoites. In words: Metabolomic fingerprint profiling LC-MS. Format: cell-based, Plasmodium falciparum. Also noted: UDP-D-glucose / ADP-D-glucose: unit not given here.
For assay [2], the system named is Neospora caninum Nc-1 tachyzoites. In words: Neospora caninum Nc-Betagal proliferation. Format: cell-based.
Assay [3] deals with P. falciparum. In words: EC50 listed in S2 Table Metabolomics (used to set the concentration tested). Particulars: Plasmodium falciparum; EC50 used for Factor_XEC50 in metabolomics; read-out: EC50_nM. It is filed as cell-based.
Assay [4] addresses T1, PfA-M1 (Plasmodium falciparum, UniProt O96935).
T1 construct: encoding residues 192-1085 of native PfA-M1; hexahistidine (N); TEV cleavage site (ENLYFQS) (N); made in house; host or cells: Escherichia coli BL21 (DE3) Rosetta 2
Put plainly: rPfA-M1 aminopeptidase activity (Florent). It is filed as biochemical, P. falciparum. Particulars: for effect on rPfA-M1 in words: 100µM.

The target of assay [5] is T2, PfA-M17 (Plasmodium falciparum, UniProt Q8IL11).
T2 construct: residues 84-605 of native Plasmodium falciparum leucyl aminopeptidase PfA-M17 (PlasmoDB PF3D7_1446200); hexahistidine (N); TEV cleavage site (N); made in house; host or cells: Escherichia coli BL21 (DE3) Rosetta 2
Put plainly: rPfA-M17 aminopeptidase activity (Florent). It is filed as biochemical, P. falciparum. Particulars: for effect on rPfA-M17 in words: 100µM.

The test system of assay [6] is Atg8-Atg3. Also noted: method as in ref [38] (a number printed in a supplementary file, which may have a reference list of its own: not looked up in the article's list). Particulars: ref [38]; cited from earlier work.
Assay [7] has as its system Schistosoma mansoni adult males. Put plainly: S. mansoni adult phenotypic and motility screen Caffrey.
In assay [8] the test system is Schistosoma mansoni schistosomula (somules). In words: S. mansoni somules phenotypic screen Caffrey. Particulars: 2.5 µM, 48 h.
Setting [9] is: metabolite level change after treatment.

The values below come from publication PMC4965013, “Open Source Drug Discovery with the Malaria Box Compound Collection for Neglected Diseases and Beyond” (PLoS Pathogens, 2016).

T2 sequence (Q8IL11 84-605): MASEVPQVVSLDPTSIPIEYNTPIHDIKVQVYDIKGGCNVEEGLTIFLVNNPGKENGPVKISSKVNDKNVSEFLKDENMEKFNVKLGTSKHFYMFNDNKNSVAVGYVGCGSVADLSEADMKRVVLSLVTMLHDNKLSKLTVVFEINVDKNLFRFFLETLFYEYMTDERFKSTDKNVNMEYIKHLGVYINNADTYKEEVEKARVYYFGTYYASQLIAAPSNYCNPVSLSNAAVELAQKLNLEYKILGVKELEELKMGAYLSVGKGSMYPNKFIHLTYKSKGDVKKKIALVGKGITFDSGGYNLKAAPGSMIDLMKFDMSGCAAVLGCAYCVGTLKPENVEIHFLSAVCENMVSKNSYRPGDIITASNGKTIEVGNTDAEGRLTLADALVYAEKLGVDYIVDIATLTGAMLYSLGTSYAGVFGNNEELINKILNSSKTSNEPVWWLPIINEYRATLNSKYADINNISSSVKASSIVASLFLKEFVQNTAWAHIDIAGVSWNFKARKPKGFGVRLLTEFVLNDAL
T1 sequence (O96935 192-1085): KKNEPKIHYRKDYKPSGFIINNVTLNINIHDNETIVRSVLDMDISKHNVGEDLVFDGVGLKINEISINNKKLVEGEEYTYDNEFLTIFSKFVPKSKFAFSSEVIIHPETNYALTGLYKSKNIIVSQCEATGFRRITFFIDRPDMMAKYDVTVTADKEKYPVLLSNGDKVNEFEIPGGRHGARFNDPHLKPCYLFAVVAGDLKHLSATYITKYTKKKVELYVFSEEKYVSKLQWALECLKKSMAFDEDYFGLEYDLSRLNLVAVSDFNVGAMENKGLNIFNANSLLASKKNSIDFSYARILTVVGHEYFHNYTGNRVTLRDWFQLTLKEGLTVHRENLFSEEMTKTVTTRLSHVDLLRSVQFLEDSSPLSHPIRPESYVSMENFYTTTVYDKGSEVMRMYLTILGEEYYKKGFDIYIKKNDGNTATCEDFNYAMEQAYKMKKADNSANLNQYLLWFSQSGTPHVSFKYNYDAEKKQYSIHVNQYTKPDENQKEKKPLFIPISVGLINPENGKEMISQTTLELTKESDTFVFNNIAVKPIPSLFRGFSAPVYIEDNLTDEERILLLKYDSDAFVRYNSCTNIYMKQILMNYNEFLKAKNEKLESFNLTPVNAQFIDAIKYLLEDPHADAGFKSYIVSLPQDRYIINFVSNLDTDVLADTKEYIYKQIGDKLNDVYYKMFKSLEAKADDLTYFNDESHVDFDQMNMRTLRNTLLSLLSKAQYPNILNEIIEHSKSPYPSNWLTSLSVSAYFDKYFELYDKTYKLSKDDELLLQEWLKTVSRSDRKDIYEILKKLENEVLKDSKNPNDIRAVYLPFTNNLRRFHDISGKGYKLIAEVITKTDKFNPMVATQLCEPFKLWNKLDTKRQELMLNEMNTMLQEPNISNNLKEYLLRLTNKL

Consider `CN(C)c1ccc(C=Cc2nc(=O)c3ccccc3o2)cc1` [MMV006309], for which the Acetyllysine in assay [1] (S2 Table Metabolomics, metabolite Acetyllysine) is -0.06229. Besides, the N-acetyl-L-ornithine in assay [1] (S2 Table Metabolomics, metabolite N-acetyl-L-ornithine) is recorded as 0.06709. For the same compound, the N-carbamoyl-L-aspartate in assay [1] (S2 Table Metabolomics, metabolite N-carbamoyl-L-aspartate) is 2.985. Also, the NADPH in assay [1] (S2 Table Metabolomics, metabolite NADPH) was -0.04695. Besides, the dAMP in assay [1] (S2 Table Metabolomics, metabolite dAMP) was -0.4457. In addition, the dCMP in assay [1] (S2 Table Metabolomics, metabolite dCMP) was determined as 0.07949. In addition, the dTDP in assay [1] (S2 Table Metabolomics, metabolite dTDP) was -0.6452. The dTMP in assay [1] (S2 Table Metabolomics, metabolite dTMP) is on record as -0.3602. Also, the dTTP in assay [1] (S2 Table Metabolomics, metabolite dTTP) is recorded as -0.2468. Further, the dihydroorotate in assay [1] (S2 Table Metabolomics, metabolite dihydroorotate) is 3.691. The orotate in assay [1] (S2 Table Metabolomics, metabolite orotate) is listed as -0.6105. Besides, in assay [1] (S2 Table Metabolomics, peptide DLH), the DLH is recorded as -0.3184. The compound further showed a DLS/SDL/SID in assay [1] (S2 Table Metabolomics, peptide DLS/SDL/SID) of -0.2456. In assay [1] (S2 Table Metabolomics, peptide PD), this compound yielded a PD of 0.4341. Also, the PEE in assay [1] (S2 Table Metabolomics, peptide PEE) is -0.1161. In assay [1] (S2 Table Metabolomics, peptide PVNF), this compound displayed a PVNF of -0.4902. Further, the 3-phosphoglycerate in assay [1] (metabolite 3-phosphoglycerate, S2 Table Metabolomics) is -0.1315. Further, the ADP-D-glucose in assay [1] (metabolite ADP-D-glucose, S2 Table Metabolomics) is 0.1572. In addition, in assay [1] (metabolite ATP, S2 Table Metabolomics), the ATP came out at 0.2918. Moreover, the CDP in assay [1] (metabolite CDP, S2 Table Metabolomics, change in metabolite level after compound treatment) was -0.5525. For the same compound, in assay [1] (metabolite D-sedoheptulose-1/7-phosphate, S2 Table Metabolomics, change in metabolite level after compound treatment), the D-sedoheptulose-1/7-phosphate was 0.4312. In addition, in assay [1] (metabolite FAD, S2 Table Metabolomics), the FAD is reported as 0.6491. The GMP in assay [1] (metabolite GMP, S2 Table Metabolomics, change in metabolite level after compound treatment) was 2.281. For the same compound, the “NAD+” value in assay [1] (metabolite NAD+, S2 Table Metabolomics) is 0.2407. Further, in assay [1] (metabolite NADP+, S2 Table Metabolomics), the “NADP+” value is listed as 0.05923. Moreover, in assay [1] (metabolite Octoluse Bisphosphate, S2 Table Metabolomics, change in metabolite level after compound treatment), the “Octoluse Bisphosphate” value came out at 0.03854. Also, in assay [1] (metabolite Pyroglutamic acid, S2 Table Metabolomics), the Pyroglutamic acid is recorded as -0.251. Further, in assay [1] (metabolite UDP-D-glucose, S2 Table Metabolomics), the UDP-D-glucose is given as 0.2158. The UDP-D-glucuronate in assay [1] (metabolite UDP-D-glucuronate, S2 Table Metabolomics) was 0.1905. The UDP-N-acetyl-glucosamine in assay [1] (metabolite UDP-N-acetyl-glucosamine, S2 Table Metabolomics) is reported as 0.2147. In assay [1] (metabolite UDP, S2 Table Metabolomics, change in metabolite level after compound treatment), the UDP is -0.5733. The UMP in assay [1] (metabolite UMP, S2 Table Metabolomics, change in metabolite level after compound treatment) is reported as -0.8586. Besides, the UTP in assay [1] (metabolite UTP, S2 Table Metabolomics, change in metabolite level after compound treatment) is -0.4965. The a-ketoglutarate in assay [1] (metabolite a-ketoglutarate, S2 Table Metabolomics) is recorded as -0.2334. For the same compound, in assay [1] (metabolite citrate/isocitrate, S2 Table Metabolomics, change in metabolite level after compound treatment), the citrate/isocitrate is given as -0.148. In addition, in assay [1] (metabolite cytidine, S2 Table Metabolomics), the cytidine is 0.1715. The dATP in assay [1] (metabolite dATP, S2 Table Metabolomics) amounted to 0.5165. Further, the dGMP/AMP in assay [1] (metabolite dGMP/AMP, S2 Table Metabolomics, change in metabolite level after compound treatment) was -0.4086. Besides, the fumarate in assay [1] (metabolite fumarate, S2 Table Metabolomics, change in metabolite level after compound treatment) is given as 0.4652. Also, in assay [1] (metabolite glucose-1/6-phosphate, S2 Table Metabolomics, change in metabolite level after compound treatment), the glucose-1/6-phosphate stood at 0.457. Besides, the glycerate in assay [1] (metabolite glycerate, S2 Table Metabolomics, change in metabolite level after compound treatment) is listed as 0.3869. The guanine in assay [1] (metabolite guanine, S2 Table Metabolomics, change in metabolite level after compound treatment) was 0.4747. Moreover, in assay [1] (metabolite guanosine, S2 Table Metabolomics, change in metabolite level after compound treatment), the guanosine is 0.5548. Besides, the hypoxanthine in assay [1] (metabolite hypoxanthine, S2 Table Metabolomics) is given as -0.07215. In addition, in assay [1] (metabolite indole, S2 Table Metabolomics), the indole was -0.02242. The inosine in assay [1] (metabolite inosine, S2 Table Metabolomics, change in metabolite level after compound treatment) amounted to 0.08258. Also, in assay [1] (setting [9]), the 2_3-Diphosphoglyceric acid is on record as 0.3655, the 4-phosphopantothenate is -0.02209, the 6-phospho-D-gluconate was determined as 0.4028 and the FMN is reported as 0.2378. In assay [1] (setting [9]), the IMP was -0.05126, the Pyrophosphate is listed as 0.2614, the Sedoheptoluse bisphosphate was found to be 0.2668 and the cyclic-AMP is 0.09044. In assay [1] (setting [9]), the glutathione disulfide came out at 0.5032, the lactate was 0.1016 and the myo-inositol turned out to be 0.2436. In addition, the nicotinate in assay [1] (metabolite nicotinate, S2 Table Metabolomics) came to 0.1263. Besides, the ornithine in assay [1] (metabolite ornithine, S2 Table Metabolomics) is -0.005843. In assay [1] (metabolite phosphoenolpyruvate, S2 Table Metabolomics), the phosphoenolpyruvate is -0.2041. Further, the pyruvate in assay [1] (metabolite pyruvate, S2 Table Metabolomics, change in metabolite level after compound treatment) is reported as -0.06331. Further, the ribose-phosphate in assay [1] (metabolite ribose-phosphate, S2 Table Metabolomics) is -0.02548. For the same compound, in assay [1] (metabolite sarcosine/alanine, S2 Table Metabolomics, change in metabolite level after compound treatment), the sarcosine/alanine worked out at 0.5971. The sn-glycerol-3-phosphate in assay [1] (metabolite sn-glycerol-3-phosphate, S2 Table Metabolomics) is -0.04439. Also, the succinate/methylmalonic acid in assay [1] (metabolite succinate/methylmalonic acid, S2 Table Metabolomics, change in metabolite level after compound treatment) is 0.1372. Also, the uridine in assay [1] (metabolite uridine, S2 Table Metabolomics, change in metabolite level after compound treatment) is reported as -0.2519. Besides, the xanthosine in assay [1] (metabolite xanthosine, S2 Table Metabolomics, change in metabolite level after compound treatment) was 0.3479. The “non-toxic N. caninum actives” value in assay [2] is “non-toxic N. caninum actives”. Also, the EC50 in assay [3] was 51.5 nM.

As for `CC(C)C[C@H](NC(=O)[C@@H](O)[C@H](N)Cc1ccccc1)C(=O)O` [bestatin, reference compound], the inhibition at 100 µM in assay [4] was 57%; in assay [5] it was 100%.

Turning to `O=C(Nc1nc(-c2ccccn2)cs1)c1ccccc1Br` [MMV665909], in assay [6], the “PPI inhibitors of Atg8-Atg3 interaction” value was “PPI inhibitors”.

For `COc1ccc(C2c3ccc4ccccc4c3Oc3ncn(CCCn4ccnc4)c(=N)c32)cc1OC` (stereo not shown) [MMV667490], the “effect on rPfA-M1 in words” value in assay [4] is “particularly effective”. Besides, in assay [5], the “effect on rPfA-M17 in words” value was “only moderately inhibiting”.

In the case of `COc1ccc(Nc2cc(C)nc(NCc3ccccc3)n2)cc1` [MMV006825], the “effect on rPfA-M1 in words” value in assay [4] is recorded as “particularly effective”. The “effect on rPfA-M17 in words” value in assay [5] was “only moderately inhibiting”.

Turning to `O=C(Nc1ccc([N+](=O)[O-])cc1Cl)c1cc(Cl)ccc1O` [niclosamide], the “S. mansoni adult males 48hr motility assay” value in assay [7] (48 h, 5µM) is given as “zero”. Further, the “S. mansoni adult males visual tox scale, 0 = none, 4=most damaged” value in assay [7] (48hr at 5 µM) is 4. This compound also showed a somule severity score in assay [8] of 4.
